Patent US9586961B2, “Homopiperazine derivatives as protein tyrosine kinase inhibitors and pharmaceutical use thereof” (LEO PHARMA A/S, priority 2010, dated 2017)

Tests used:
Assay type in all cases: biochemical
JAK1 = molecular target: T1, JAK1 (Homo sapiens, UniProt P23458); assay: JAK1 kinase assay (HTRF, inhibition of phosphorylation of a synthetic peptide); details: catalytic domain aa 850-1154, GST-tag; 7 μM ATP (Km); read-out: JAK1 kinase inhibitory activity (EC50)
T1 construct: JAK1 (aa 850-1154) and TYK2 (aa 871-1187) are expressed with an N-terminally fused GST-tag; GST (N); purchased Carna Biosciences, Inc; host or cells: baculovirus expression system
T1 sequence (P23458 850-1154): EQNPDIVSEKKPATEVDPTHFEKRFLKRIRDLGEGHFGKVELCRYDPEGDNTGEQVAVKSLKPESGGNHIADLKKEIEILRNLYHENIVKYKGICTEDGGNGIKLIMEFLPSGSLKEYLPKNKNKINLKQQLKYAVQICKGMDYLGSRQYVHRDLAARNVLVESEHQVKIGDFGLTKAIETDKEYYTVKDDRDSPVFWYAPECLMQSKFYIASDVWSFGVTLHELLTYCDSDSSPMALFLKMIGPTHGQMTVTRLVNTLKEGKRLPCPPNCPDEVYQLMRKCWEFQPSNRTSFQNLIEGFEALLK
How it was run: (§1)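 Baculovirus-expressed catalytic domains (GST-JAK1 aa 850-1154, GST-TYK2 aa 871-1187, His-JAK2, His-JAK3) phosphorylate 1 μM biotin-TK peptide 20-30 min at RT in 50 mM Hepes pH 7.0 with ATP at Km: JAK1 7 μM, JAK2 4 μM, JAK3 2 μM, TYK2 13 μM; 0.75% DMSO. Stopped with EDTA, HTRF read overnight.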

JAK2 = molecular target: T2, JAK2 (Homo sapiens, UniProt O60674); assay: JAK2 kinase assay (HTRF, inhibition of phosphorylation of a synthetic peptide); details: catalytic domain, His-tag; 4 μM ATP (Km); read-out: JAK2 kinase inhibitory activity (EC50)
T2 construct: All four purified enzymes contain only the catalytic domain; His (N); purchased Carna Biosciences, Inc; host or cells: baculovirus expression system
T2 sequence (O60674 849-1124 limits assumed): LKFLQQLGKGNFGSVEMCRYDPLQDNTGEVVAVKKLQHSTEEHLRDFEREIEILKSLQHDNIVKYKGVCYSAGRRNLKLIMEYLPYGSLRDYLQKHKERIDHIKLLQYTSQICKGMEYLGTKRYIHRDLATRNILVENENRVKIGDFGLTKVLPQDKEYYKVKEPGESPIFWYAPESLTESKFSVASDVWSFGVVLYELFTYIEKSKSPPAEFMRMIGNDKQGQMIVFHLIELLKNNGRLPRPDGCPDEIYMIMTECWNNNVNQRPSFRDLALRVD
How it was run: as §1

JAK3 = molecular target: T3, JAK3 (Homo sapiens, UniProt P52333); assay: JAK3 kinase assay (HTRF, inhibition of phosphorylation of a synthetic peptide); details: catalytic domain, His-tag; 2 μM ATP (Km); read-out: JAK3 kinase inhibitory activity (EC50)
T3 construct: All four purified enzymes contain only the catalytic domain; His (N); purchased Carna Biosciences, Inc; host or cells: baculovirus expression system
T3 sequence (P52333 822-1111 limits assumed): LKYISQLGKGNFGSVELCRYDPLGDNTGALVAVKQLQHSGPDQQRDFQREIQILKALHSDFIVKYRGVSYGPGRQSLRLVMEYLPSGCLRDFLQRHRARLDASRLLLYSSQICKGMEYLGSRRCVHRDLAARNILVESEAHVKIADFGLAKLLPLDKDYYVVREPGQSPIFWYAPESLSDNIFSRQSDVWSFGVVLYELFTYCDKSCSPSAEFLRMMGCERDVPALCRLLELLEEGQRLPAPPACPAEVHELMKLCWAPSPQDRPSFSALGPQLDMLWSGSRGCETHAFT
How it was run: as §1

TYK2 = molecular target: T4, TYK2 (Homo sapiens, UniProt P29597); assay: TYK2 kinase assay (HTRF, inhibition of phosphorylation of a synthetic peptide); details: catalytic domain aa 871-1187, GST-tag; 13 μM ATP (Km); read-out: TYK2 kinase inhibitory activity (EC50)
T4 construct: JAK1 (aa 850-1154) and TYK2 (aa 871-1187) are expressed with an N-terminally fused GST-tag; GST (N); purchased Carna Biosciences, Inc; host or cells: baculovirus expression system
T4 sequence (P29597 871-1187): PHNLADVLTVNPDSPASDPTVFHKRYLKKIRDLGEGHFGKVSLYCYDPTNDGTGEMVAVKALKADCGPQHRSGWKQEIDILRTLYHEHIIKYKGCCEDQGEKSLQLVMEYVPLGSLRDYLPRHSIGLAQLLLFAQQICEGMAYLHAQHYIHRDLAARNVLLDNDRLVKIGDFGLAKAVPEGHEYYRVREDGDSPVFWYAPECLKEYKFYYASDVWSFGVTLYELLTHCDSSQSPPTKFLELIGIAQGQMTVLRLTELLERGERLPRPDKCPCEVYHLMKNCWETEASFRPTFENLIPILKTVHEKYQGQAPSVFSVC
How it was run: as §1

Row | Compound | EC50 (JAK1) [µM] | EC50 (JAK2) [µM] | EC50 (JAK3) [µM] | EC50 (TYK2) [µM]
1 | Nc1nc(N2CCN(Cc3ccccc3)CC3(CC3)C2)c2cc[nH]c2n1 [Example 68, 4-(5-benzyl-5,8-diazaspiro[2.6]nonan-8-yl)-7H-pyrrolo[2,3-d]pyrimidin-2-amine] | > 1 | > 1 | > 1 | > 1
2 | COc1cc(S(N)(=O)=O)ccc1C(=O)N1CCN(c2ncnc3[nH]ccc23)CC2(CC2)C1 [Example 52, 3-methoxy-4-[5-(7H-pyrrolo[2,3-d]pyrimidin-4-yl)-5,8-diazaspiro[2.6]nonane-8-carbonyl]benzenesulfonamide] | 0.1 to 1 | < 0.1 | 0.1 to 1 | > 1
3 | N#Cc1ccc(C(=O)N2CCN(c3ncnc4[nH]ccc34)CC3(CC3)C2)cc1F [Example 42, 2-fluoro-4-[5-(7H-pyrrolo[2,3-d]pyrimidin-4-yl)-5,8-diazaspiro[2.6]nonane-8-carbonyl]benzonitrile] | 0.1 to 1 | 0.1 to 1 | 0.1 to 1 | > 1
4 | COCCNS(=O)(=O)c1ccc(C(=O)N2CCN(c3ncnc4[nH]ccc34)CC3(CC3)C2)cc1 [Example 74, N-(2-methoxyethyl)-4-[5-(7H-pyrrolo[2,3-d]pyrimidin-4-yl)-5,8-diazaspiro[2.6]nonane-8-carbonyl]benzenesulfonamide] | 0.1 to 1 | 0.1 to 1 | 0.1 to 1 | > 1
5 | CN(C)S(=O)(=O)c1ccc(C(=O)N2CCN(c3ncnc4[nH]ccc34)CC3(CC3)C2)cc1 [Example 33, N,N-dimethyl-4-[5-(7H-pyrrolo[2,3-d]pyrimidin-4-yl)-5,8-diazaspiro[2.6]nonane-8-carbonyl]benzenesulfonamide] | 0.1 to 1 | 0.1 to 1 | 0.1 to 1 | > 1
6 | CCCCC(=O)Nc1nc(N2CCNCC3(CC3)C2)c2cc[nH]c2n1 [Example 294] | > 1 | > 1 | > 1 | > 1

The next lines start with the values.

Row | EC50 (JAK1) [µM] | EC50 (JAK2) [µM] | EC50 (JAK3) [µM] | EC50 (TYK2) [µM] | Compound
7 | < 0.1 | < 0.1 | < 0.1 | 0.1 to 1 | N#Cc1ccc(CCC(=O)N2CCN(c3ncnc4[nH]ccc34)CC3(CC3)C2)cc1 [Example 115, 4-[3-oxo-3-[5-(7H-pyrrolo[2,3-d]pyrimidin-4-yl)-5,8-diazaspiro[2.6]nonan-8-yl]propyl]benzonitrile]
8 | 0.1 to 1 | 0.1 to 1 | 0.1 to 1 | > 1 | NS(=O)(=O)c1cccc(C(=O)N2CCN(c3ncnc4[nH]ccc34)CC3(CC3)C2)c1 [Example 73, 3-[5-(7H-pyrrolo[2,3-d]pyrimidin-4-yl)-5,8-diazaspiro[2.6]nonane-8-carbonyl]benzenesulfonamide]
9 | 0.1 to 1 | 0.1 to 1 | 0.1 to 1 | > 1 | N#CCOc1ccc(C(=O)N2CCN(c3ncnc4[nH]ccc34)CC3(CC3)C2)cc1 [Example 15, 2-[4-[5-(7H-pyrrolo[2,3-d]pyrimidin-4-yl)-5,8-diazaspiro[2.6]nonane-8-carbonyl]phenoxy]acetonitrile]
10 | < 0.1 | < 0.1 | 0.1 to 1 | > 1 | O=C(Cc1ccc(OC(F)(F)F)cc1)N1CCN(c2ncnc3[nH]ccc23)CC2(CC2)C1 [Example 274, 1-[5-(7H-pyrrolo[2,3-d]pyrimidin-4-yl)-5,8-diazaspiro[2.6]nonan-8-yl]-2-[4-(trifluoromethoxy)phenyl]ethanone]
11 | < 0.1 | < 0.1 | 0.1 to 1 | 0.1 to 1 | O=C(c1csnn1)N1CCCN(c2ncnc3[nH]ccc23)CC12CC2 [Example 142, [5-(7H-pyrrolo[2,3-d]pyrimidin-4-yl)-5,9-diazaspiro[2.6]nonan-9-yl]-(thiadiazol-4-yl)methanone]
12 | < 0.1 | < 0.1 | < 0.1 | 0.1 to 1 | Cc1sc(C(=O)N2CCN(c3ncnc4[nH]ccc34)CC3(CC3)C2)cc1S(N)(=O)=O [Example 24, 2-methyl-5-[5-(7H-pyrrolo[2,3-d]pyrimidin-4-yl)-5,8-diazaspiro[2.6]nonane-8-carbonyl]thiophene-3-sulfonamide]
